Data taken from patent US4673675A, “1-(2-pyridyl) 4-cycloalkylmethyl piperazines having cardiotropic activity” (Innothera, priority 1984, dated 1987).

How the values were obtained:
[1] = test system: isolated right auricle of a guinea pig; assay: Chronotropic action (bradycardizing effect) on the isolated right auricle of a guinea pig; conditions: 1·10^-4 g·ml^-1, 30 minutes contact, % reduction of beats/minute; for inhibition at 100 µg/mL: Cavia porcellus, 0.5 h
Protocol: Guinea pigs of either sex were killed with a blow and bled, the right auricle was swiftly removed and immediately immersed in a Krebs-Henseleit solution, thermostatically controlled to 36° C.±0.5° C. and aerated with a mixture of O2 and CO2 (95% and 5%). The preparation was connected to an isometric myograph (F-50 Narco) then to a recording system (Physiograpg M-K III--Narco).
A 60 minute delay was required for ensuring chronotropic action stability.
The compounds (I) of the invention and the pharmaceutically acceptable salts thereof were added to the nutritive medium in a concentration of 1.10^-4 g.ml^-1 and left in contact with the auricle for 30 minutes. The action was evaluated by the percentage reduction of the number of beats/minute (beat/min.) before administration of the compound under test.

[2] = target: T1, isolated left auricle of a guinea pig (cardiac inotropic function β1) (Cavia porcellus, UniProt H0W3H1); assay: Positive inotropic effect: contractile force of the isolated left auricle of a guinea pig
T1 construct: the left auricle being swiftly removed and immersed immediately in a Krebs-Henseleit solution; from tissue; host or cells: isolated left auricle of guinea pigs of either sex
T1 sequence (H0W3H1 1-470): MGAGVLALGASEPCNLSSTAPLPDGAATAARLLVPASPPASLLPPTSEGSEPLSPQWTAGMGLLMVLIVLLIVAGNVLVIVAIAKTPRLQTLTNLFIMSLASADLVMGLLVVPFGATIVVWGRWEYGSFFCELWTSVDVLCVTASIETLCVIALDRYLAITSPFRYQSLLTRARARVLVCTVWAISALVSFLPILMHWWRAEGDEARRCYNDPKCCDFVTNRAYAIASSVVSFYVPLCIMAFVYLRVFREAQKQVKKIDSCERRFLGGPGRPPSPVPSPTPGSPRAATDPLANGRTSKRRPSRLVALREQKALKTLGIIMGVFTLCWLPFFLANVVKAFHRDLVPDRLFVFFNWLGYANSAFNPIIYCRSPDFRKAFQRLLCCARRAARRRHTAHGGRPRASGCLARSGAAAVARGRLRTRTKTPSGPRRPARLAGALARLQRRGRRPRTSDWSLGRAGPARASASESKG
Source text: The in vitro study was made on the contractile force of the isolated left auricle of a guinea pig. The technique used was that of P. LUMBEY et Coll. […] It allowed the cardiac inotropic function β1 to be studied.
The preparation was connected to an isometric myograph (F-50 Narco), then to a recording system (Physiograph M-K III Narco). For the whole duration of the test the auricle was electrically stimulated by a neurostimulator (Equipement Industriel II) at the frequence of 90 to 120 beats/min.

[3] = test system: cardiac hemodynamics in anaesthetized dogs; assay: Cardiac hemodynamics in dogs anaesthetized with Nembutal, open thorax; type: in vivo, dog
Protocol: (§1) The positive inotropic effect of compounds (I) of the invention and the pharmaceutically acceptable salts thereof were further tested on the cardiac dynamics of an anaesthetized animal and on a wakeful chronically implanted animal.
(§2) a. Test on a dog anaesthetized with Nembutal
(§3) Two test protocols were carried out, one on a dog with open thorax and the other on a dog with closed thorax. The left intraventricular pressure (PIVG) and aortic pressure (supra sigmoid) (PAO) were measured with high fidelity micro-sensors (Millar 5F), the first derivative of the left ventricular pressure (dP/dt) was recorded as well as the electrocardiogram. The instantaneous alveolar PCO2 was continuously measured. Finally, different blood flow rates were measured, namely the femoral and carotid flow rates in the animals with closed thorax and the aortic and coronary flow rates in those on which a thoracotomy had been performed. These different rates were measured by the electro-magnetic method.

[4] = test system: cardiac hemodynamics of anaesthetized dogs; assay: Cardiac hemodynamics in dogs anaesthetized with Nembutal, closed thorax; type: in vivo, dog
Protocol: as §1, §2, §3
An analysis of the dose/effect relation on three dogs (see results shown in table V below) confirmed the results obtained on dogs with open thorax for compound 1a.

[5] = test system: cardiac hemodynamics in chronically implanted wakeful dogs; assay: Cardiac hemodynamics in chronically implanted wakeful dogs; type: in vivo, dog
Protocol: as §1
b. Test on chronically implanted wakeful dogs
The compounds were tested orally and intravenously on dogs previously implanted with a pressure probe placed in the left ventricle (Janssen) and a Doppler rate sensor placed on the aorta, the tests being carried out at the minium 8 days after implantation.

[6] = Toxicity by a single intravenous administration in mice; type: in vivo; conditions: mouse, in vivo; single intravenous administration, mice; Litchfield and Wilcoxon; read-out: LD50 (95% confidence limit)
Protocol: (§4) The toxicity of the compounds of the invention was also tested. It concerns more precisely the test of toxicity by a single administration made for all the compounds on male mice, E.O.P.S. of SWISS strain (5 animals per batch).
(§5) The compounds under test were solubilized in a […] aqueous solution of NaCl, at various concentrations and the solutions obtaoned were injected intravenously at the rate of 10 ml.kg^-1 of body weight.
(§6) The administration was made in 20 seconds, the animals being kept under clinical observation for 3 hours after administration, then daily for 7 days.

[7] = test system: male mice, E.O.P.S. of SWISS strain; assay: as above; type: in vivo; conditions: single i.v. administration; symptoms observed at the dose where there was no mortality
Protocol: as §4, §5, §6

[8] = 0.5 mg·kg^-1 i.v., closed thorax

Structure (SMILES): c1ccc(N2CCN(CC3CC3)CC2)nc1 [Compound 1a, 1-(2-pyridyl) 4-cyclopropylmethyl piperazine]
- inhibition at 100 µg/mL [1]: 24%
- Emax ([2]; guinea pig, read-out: α (intrinsic activity)): 60 ± 30%
- EC50 ([2]; negative log. of the molar concentration producing 50% of maximum action, stimulated at 90 to 120 beats/min, read-out: pD2 (converted)): 20.9 µM
- other parameters measured ([3]; 0.5 mg·kg^-1 i.v.): did not vary significantly
- time of the acme of the action after injection ([3]; 0.5 mg·kg^-1 i.v.): 45 min
- decrease of left ventricular telediastolic pressure ([3]; 0.5 mg·kg^-1 i.v., significant): 28%
- D.A.O. (aortic flow rate) modification ([3]; 1 mg·kg^-1 i.v.): +23%
- V.E.S. (systolic ejection volume) modification ([3]; 1 mg·kg^-1 i.v.): +13%
- time following injection during which dP/dt increased significantly ([3]; 1 mg·kg^-1 i.v.): 90 min
- dP/dt+ (first derivative of the left ventricular pressure) modification ([3]; 1 mg·kg^-1 i.v., significant): +31%
- P.Ao m (average aortic pressure) modification [4, 8]: +11%
- PtdVG (left ventricular telediastolic pressure) modification [4, 8]: -35%
- P.Ao m (average aortic pressure) modification ([4]; 2 mg·kg^-1 i.v., closed thorax): +8%
- PtdVG (left ventricular telediastolic pressure) modification ([4]; 2 mg·kg^-1 i.v., closed thorax): -31%
- dP/dt+ (first derivative of the left ventricular pressure) modification ([4]; 2 mg·kg^-1 i.v., closed thorax): +28%
- respiratory analeptic effect ([4]; anaesthetized dogs, i.v.): appreciable and durable respiratory analeptic effect
- duration of the positive inotropic effect ([4]; i.v., closed thorax): exceeds three
- dose at which the acme of the positive inotropic effect appeared ([4]; i.v., closed thorax, increasing the dose did not increase the effect): 0.5 mg/kg
- increase of the dP/dt+ ([5]; 1 mg.kg^-1 intravenously): 136%
- PIVG Syst. (left intraventricular pressure) modification ([5]; 5 mg·kg^-1 p.o.): +15%
- D.A.O. (aortic flow rate) modification ([5]; 10 mg·kg^-1 p.o.): +27%
- F.C. (heartbeat rate, cardiac frequency) modification ([5]; 10 mg·kg^-1 p.o.): +45%
- PIVG Syst. (left intraventricular pressure) modification ([5]; 10 mg·kg^-1 p.o.): +26%
- dP/dt+ (first derivative of the left ventricular pressure) modification ([5]; 10 mg·kg^-1 p.o.): +55%
- increase of dP/dt+/P ([5]; 5 and 10 mg.kg^-1 orally (results approximately similar for both doses)): 32%
- LD50 at 168 h [6]: 47 mg/kg

Structure (SMILES): c1ccc(N2CCN(CC3CCC3)CC2)nc1 [Compound 2]
- inhibition at 100 µg/mL [1]: 7%
- LD50 at 168 h [6]: 67 mg/kg

Structure (SMILES): c1ccc(N2CCN(CC3CCCCC3)CC2)nc1 [Compound 3]
- inhibition at 100 µg/mL [1]: 13%
- LD50 at 168 h [6]: 81 mg/kg
- Clinical symptomatology [7]: Hypersensitivity, stereotypy

Structure (SMILES): CC(C)N(CCN1CCN(c2ccccn2)CC1)C(C)C [Compound 4]
- inhibition at 100 µg/mL [1]: 9%
- LD50 at 168 h [6]: 95 mg/kg
- Clinical symptomatology [7]: Cyanosis, starts

Structure (SMILES): c1ccc(N2CCN(CCN3CCCCCC3)CC2)nc1 [Compound 6]
- Reduction of the chronotropic effect [1]: Arrhythmia
- LD50 at 168 h [6]: 84 mg/kg

Structure (SMILES): CCN(CC)CCCN1CCN(c2ccccn2)CC1 [Compound 7]
- inhibition at 100 µg/mL [1]: 16%
- LD50 at 168 h [6]: 96 mg/kg
- Clinical symptomatology [7]: Cyanosis, apnoea

Structure (SMILES): c1ccc(N2CCN(CCCN3CCCC3)CC2)nc1 [Compound 8]
- inhibition at 100 µg/mL [1]: 20%
- LD50 at 168 h [6]: 142 mg/kg

Structure (SMILES): c1ccc(N2CCN(CCCN3CCCCCC3)CC2)nc1 [Compound 10]
- inhibition at 100 µg/mL [1]: 0%
- LD50 at 168 h [6]: 74 mg/kg

Structure (SMILES): c1ccc(N2CCN(CCCN3CCOCC3)CC2)nc1 [Compound 11]
- Reduction of the chronotropic effect [1]: Arrhythmia

Structure (SMILES): CC1CN(CCCN2CCN(c3ccccn3)CC2)CC(C)O1 (stereo not drawn) [Compound 12]
- inhibition at 100 µg/mL [1]: 0%
- LD50 at 168 h [6]: 149 mg/kg

Structure (SMILES): CCN(CC)CC(C)N1CCN(c2ccccn2)CC1 (stereo not drawn) [Compound 13]
- Reduction of the chronotropic effect [1]: Arrhythmia
- LD50 at 168 h [6]: 76 mg/kg

Structure (SMILES): O=C(CN1CCN(c2ccccn2)CC1)Nc1cccc(F)c1 [Compound 14]
- inhibition at 100 µg/mL [1]: 18%
- LD50 at 168 h [6]: 129 mg/kg
- Clinical symptomatology [7]: Apnoea, sedation

Structure (SMILES): O=C(CN1CCN(c2ccccn2)CC1)Nc1cc(F)cc(F)c1 [Compound 15]
- inhibition at 100 µg/mL [1]: 0%

Structure (SMILES): O=C(CN1CCN(c2ccccn2)CC1)Nc1cccc(C(F)(F)F)c1 [Compound 16]
- inhibition at 100 µg/mL [1]: 18%
- LD50 at 168 h [6]: 109 mg/kg

Structure (SMILES): COc1cc(CN2CCN(c3ccccn3)CC2)cc(OC)c1OC [Compound 17]
- inhibition at 100 µg/mL [1]: 31%
- LD50 at 168 h [6]: 130 mg/kg

Structure (SMILES): Clc1c(CN2CCN(c3ccccn3)CC2)ccc2c1OCO2 [Compound 18]
- inhibition at 100 µg/mL [1]: 11%
